Data reported in patent US12116357B2, “Heteroaryl-triazole and heteroaryl-tetrazole compounds as pesticides” (Bayer Aktiengesellschaft, priority 2018, dated 2024).
Read-outs that look alike come from different tables or passages of the source. One block for each compound: values may come before it.

How the values were obtained:
Myzus persicae = Myzus persicae oral test; assay type: in vivo; settings: 120 h
Description: • Solvent: 100 parts by weight acetone
To produce a suitable preparation of active compound, 1 part by weight of active compound is mixed with the stated amount of solvent, and the concentrate is diluted with water to the desired concentration. 50 μl compound solution is filled in microtiter plates and 150 μl IPL41 insect medium (33%+15% sugar) is added to obtain a total volume of 200 μl per well. Afterwards the plates are sealed with parafilm through which a mixed population of the green peach aphid (Myzus persicae) can suck on the compound preparation.
After 5 days mortality in % is determined. 100% means all aphids have been killed and 0% means none of the aphids have been killed.

[1] = system: Aedes aegypti strain MONHEIM; assay: Aedes aegypti test (surface treatment & contact assay); assay type: in vivo; settings: 24 hours after contact, read-out: efficacy (mortality); for mortality at 20 mg/m2: surface concentration 20 mg/m^2, 30 min exposure
Description: (§1) • Solvent: Aceton+2000 ppm rapeseed oil methyl ester (RME)
(§2) In order to produce a sufficient, active ingredient containing solution it is necessary to solve the test compound in the solvent-mix (acetone at 2 mg/ml/RME 2000 ppm). This solution is pipetted onto a glazed tile and after evaporation of the acetone, adult mosquitoes of the species Aedes aegypti strain MONHEIM are placed onto the dried surface. The exposure time is 30 minutes.
(§3) Mortality in percent (%) is determined 24 hours after contact of the insects to the treated surface. 100% mortality means that all tested insects are dead, whereas 0% means that no insect died.

Phaedon cochleariae = Phaedon cochleariae spray test; assay type: in vivo; settings: 168 h, after 7 days
Description: (§4) • Solvent: 78.0 parts by weight of acetone • 1.5 parts by weight of dimethylformamide • Emulsifier: alkylarylpolyglycol ether
(§5) To produce a suitable preparation of active compound, 1 part by weight of active compound is mixed with the stated amount of solvents and is diluted with water, containing an emulsifier concentration of 1000 ppm, to the desired concentration. Further test concentrations are prepared by dilution with emulsifier containing water.
Chinese cabbage (Brassica pekinensis) leaf disks are sprayed with a preparation of the active ingredient of the desired concentration. Once dry, the leaf disks are infested with mustard beetle larvae (Phaedon cochleariae).
After 7 days mortality in % is determined. 100% means all beetle larvae have been killed and 0% means none of the beetle larvae have been killed.

Spodoptera frugiperda = Spodoptera frugiperda spray test; assay type: in vivo; settings: 168 h
Description: • Solvent: 78.0 parts by weight acetone • 1.5 parts by weight dimethylformamide • Emulsifier: alkylarylpolyglycol ether
as §5
Maize (Zea mays) leaf sections are sprayed with a preparation of the active ingredient of the desired concentration. Once dry, the leaf sections are infested with fall armyworm larvae (Spodoptera frugiperda).
After 7 days mortality in % is determined. 100% means all caterpillars have been killed and 0% means none of the caterpillars have been killed.

Ctenocephalides felis [2] = assay: Ctenocephalides felis oral test; assay type: in vivo; settings: 48 h, 100 ppm in cattle blood, after 2 days
Description: (§6) • Solvent: dimethyl sulfoxide
To produce a suitable preparation of active compound, 10 mg of active compound are dissolved in 0.5 ml solvent, and the concentrate is diluted with cattle blood to the desired concentration.
Approximately 20 adult unfed cat fleas (Ctenocephalides felis) are placed in flea chambers. The blood chamber, sealed with parafilm on the bottom, are filled with cattle blood supplied with compound solution and placed on the gauze covered top of the flea chamber, so that the fleas are able to suck the blood. The blood chamber is heated to 37° C. whereas the flea chamber is kept at room temperature.
After 2 days mortality in % is determined. 100% means all the fleas have been killed; 0% means none of the fleas have been killed.

Boophilus microplus = Boophilus microplus injection test; assay type: in vivo; settings: Rhipicephalus microplus, 168 h, 20 μg/animal, egg deposition after 7 days, read-out: efficacy (infertile eggs)
Description: as §6
To produce a suitable preparation of active compound, 10 mg of active compound are dissolved in 0.5 ml solvent, and the concentrate is diluted with solvent to the desired concentration.
Five adult engorged female ticks (Boophilus microplus) are injected with 1 μl compound solution into the abdomen. The ticks are transferred into replica plates and incubated in a climate chamber.
After 7 days egg deposition of fertile eggs is monitored. Eggs where fertility is not visible are stored in a climate chamber till hatching after about 42 days. An efficacy of 100% means all eggs are infertile; 0% means all eggs are fertile.

Nezara viridula = Nezara viridula spray test; assay type: in vivo; settings: 96 h
Description: as §4
as §5, with “solvent,” for “solvents”, “and the concentrate” for “and”
Barley plants (Hordeum vulgare) infested with larvae of the southern green stink bug (Nezara viridula) are sprayed with a test solution containing the desired concentration of the active ingredient.
After 4 days mortality in % is determined. 100% means all the stink bugs have been killed; 0% means none of the stink bugs have been killed.

Nilaparvata lugens = Nilaparvata lugens spray test; assay type: in vivo; settings: 96 h
Description: as §4, §5
Rice plants (Oryza sativa) are sprayed with a preparation of the active ingredient of the desired concentration and the plants are infested with the brown planthopper (Nilaparvata lugens).
After 4 days mortality in % is determined. 100% means all planthoppers have been killed and 0% means none of the planthoppers have been killed.

[3] = system: Musca domestica strain WHO-N; assay: Musca domestica test (surface treatment & contact assay); assay type: in vivo; settings: 24 hours after contact, read-out: efficacy (mortality)
Description: as §1
as §2, with “flies” for “mosquitoes”, “Musca domestica” for “Aedes aegypti”, “WHO-N” for “MONHEIM”
as §3

Ctenocephalides felis [4] = assay: Ctenocephalides felis in-vitro contact test, adult cat flea; assay type: in vivo; settings: 5 μg/cm^2, after 48 hours, read-out: efficacy (fleas dead or moribund)
Description: 9 mg compound is solved in 1 ml acetone and diluted with acetone to the desired concentration. 250 μl of the test solution is filled in 25 ml glass test tubes and homogeneously distributed on the inner walls by rotation and tilting on a shaking device (2 h at 30 rpm). With a compound concentration of 900 ppm, an inner surface of 44.7 cm^2 and a homogeneous distribution, a dose of 5 μg/cm^2 is achieved.
After the solvent has evaporated, each test tube is filled with 5-10 adult cat fleas (Ctenocephalides felis), closed with a perforated lid and incubated in a lying position at room temperature and relative humidity. After 48 hours efficacy is determined. The fleas are patted on the ground of the tubes and are incubated on a heating plate at 45-50° C. for at most 5 minutes. Immotile or uncoordinated moving fleas, which are not able to escape the heat by climbing upwards, are marked as dead or moribund.
An efficacy of 100% means all fleas are dead or moribund; 0% means no fleas are dead or moribund.

[5] = log P by HPLC on reversed phase columns (EEC directive 79/831 Annex V.A8); assay type: physicochemical; settings: reversed phase HPLC column, LC-UV, neutral range
[6] = surface concentration 4 mg/m^2, 30 min exposure
[7] = 0.001 molar ammonium acetate in water and acetonitrile (table footnote), read-out: LogP^[a]

SMILES: CC(c1ncnn1-c1ncccn1)N(CC1(c2ccccc2)CC1)C(=O)c1cc(Cl)cc(C(F)(F)F)c1 (centres unmarked) [Example I-006]
mortality at 20 ppm (Myzus persicae): 90%
mortality at 20 mg/m2 [1]: 90 to 100%
mortality at 500 g/ha (Phaedon cochleariae): 100%
mortality at 500 g/ha (Spodoptera frugiperda): 100%
mortality at 100 ppm (Ctenocephalides felis [2]): 100%

SMILES: CC(c1ncnn1-c1ncccn1)N(CC1CCOCC1)C(=O)c1cc(Cl)cc(C(F)(F)F)c1 (centres unmarked) [Example I-008]
mortality at 20 ppm (Myzus persicae): 100%
mortality at 500 g/ha (Phaedon cochleariae): 100%

SMILES: CC(c1ncnn1-c1ncccn1)N(CC1(C)CC1)C(=O)c1cc(Cl)cc(C(F)(F)F)c1 (centres unmarked) [Example I-009]
pest or weed control at 0.02 mg (Boophilus microplus): 80%
mortality at 4 ppm (Myzus persicae): 100%
mortality at 20 ppm (Myzus persicae): 100%
mortality at 500 g/ha (Nezara viridula): 100%
mortality at 500 g/ha (Phaedon cochleariae): 100%
mortality at 500 g/ha (Spodoptera frugiperda): 100%
mortality at 100 ppm (Ctenocephalides felis [2]): 100%

SMILES: CC(c1ncnn1-c1ncccn1)N(CC1CCCO1)C(=O)c1cc(Cl)cc(C(F)(F)F)c1 (centres unmarked) [Example I-012]
mortality at 20 ppm (Myzus persicae): 100%

SMILES: CC(c1ncnn1-c1ncccn1)N(Cc1ccncc1)C(=O)c1cc(Cl)cc(C(F)(F)F)c1 (centres unmarked) [Example I-014]
pest or weed control at 0.02 mg (Boophilus microplus): 100%
mortality at 4 ppm (Myzus persicae): 100%
mortality at 20 ppm (Myzus persicae): 100%
mortality at 500 g/ha (Nezara viridula): 100%
mortality at 500 g/ha (Phaedon cochleariae): 100%
mortality at 500 g/ha (Spodoptera frugiperda): 100%
mortality at 100 ppm (Ctenocephalides felis [2]): 100%
mortality at 500 g/ha (Nilaparvata lugens): 100%

SMILES: CC(c1ncnn1-c1ncccn1)N(CC1CCOC1)C(=O)c1cc(Cl)cc(C(F)(F)F)c1 (centres unmarked) [Example I-015]
pest or weed control at 0.02 mg (Boophilus microplus): 100%
mortality at 20 ppm (Myzus persicae): 100%
mortality at 500 g/ha (Phaedon cochleariae): 100%
mortality at 500 g/ha (Spodoptera frugiperda): 100%
mortality at 100 ppm (Ctenocephalides felis [2]): 100%

SMILES: CC(c1ncnn1-c1ncccn1)N(Cc1ccc(C#N)cc1)C(=O)c1cc(Cl)cc(C(F)(F)F)c1 (centres unmarked) [Example I-018]
pest or weed control at 0.02 mg (Boophilus microplus): 90%
mortality at 4 ppm (Myzus persicae): 100%
mortality at 20 ppm (Myzus persicae): 100%
mortality at 4 mg/m2 [3, 6]: 90 to 100%
mortality at 20 mg/m2 ([3]; surface concentration 20 mg/m^2, 30 min exposure): 90 to 100%
mortality at 500 g/ha (Nezara viridula): 100%
mortality at 4 mg/m2 [1, 6]: 80 to 100%
mortality at 20 mg/m2 [1]: 90 to 100%
mortality at 500 g/ha (Phaedon cochleariae): 100%
mortality at 500 g/ha (Spodoptera frugiperda): 100%
mortality at 100 ppm (Ctenocephalides felis [2]): 100%

SMILES: CC(c1ncnn1-c1ncccn1)N(Cc1cccnc1)C(=O)c1cc(Cl)cc(C(F)(F)F)c1 (centres unmarked) [Example I-019]
pest or weed control at 0.02 mg (Boophilus microplus): 100%
mortality at 4 ppm (Myzus persicae): 100%
mortality at 20 ppm (Myzus persicae): 100%
mortality at 500 g/ha (Nezara viridula): 100%
mortality at 20 mg/m2 [1]: 90 to 100%
mortality at 500 g/ha (Phaedon cochleariae): 100%
mortality at 500 g/ha (Spodoptera frugiperda): 100%
mortality at 100 ppm (Ctenocephalides felis [2]): 90%
mortality at 500 g/ha (Nilaparvata lugens): 100%

SMILES: COc1ccc(CN(C(=O)c2cc(Cl)cc(C(F)(F)F)c2)C(C)c2ncnn2-c2ncccn2)cc1 (centres unmarked) [Example I-020]
pest or weed control at 0.02 mg (Boophilus microplus): 80%
mortality at 20 ppm (Myzus persicae): 100%
mortality at 500 g/ha (Nezara viridula): 100%
mortality at 100 ppm (Ctenocephalides felis [2]): 100%

SMILES: CC(c1ncnn1-c1ncccn1)N(C(=O)c1cc(Cl)cc(C(F)(F)F)c1)C1CSC1 (centres unmarked) [Example I-024]
mortality at 4 ppm (Myzus persicae): 100%
mortality at 20 ppm (Myzus persicae): 100%
mortality at 500 g/ha (Nezara viridula): 100%
pest or weed control at 5 µg/cm2 (Ctenocephalides felis [4]): 100%
mortality at 500 g/ha (Phaedon cochleariae): 100%
mortality at 100 ppm (Ctenocephalides felis [2]): 100%
mortality at 500 g/ha (Nilaparvata lugens): 100%

SMILES: CC(NCc1ccccn1)c1ncnn1-c1ncccn1 (centres unmarked) [a-001, N-(pyridin-2-ylmethyl)-1-[1-(pyrimidin-2-yl)-1H-1,2,4-triazol-5-yl]ethanamine]
chromatographic logP [5, 7]: 0.72
chromatographic logP ([5]; 0.001 molar ammonium acetate in water and acetonitrile, read-out: log P^[b]): 0.77

chromatographic logP [5, 7]: 0.75
SMILES: CC(NC1CC1)c1ncnn1-c1ncccn1 (centres unmarked) [a-002]

chromatographic logP [5, 7]: 0.85
SMILES: CC(NCC1CCOCC1)c1ncnn1-c1ncccn1 (centres unmarked) [a-003]

chromatographic logP [5, 7]: 1.67
SMILES: CC(NCC1CCCC1)c1ncnn1-c1ncccn1 (centres unmarked) [a-004]

chromatographic logP [5, 7]: 1.9
SMILES: CC(NCC1(c2ccccc2)CC1)c1ncnn1-c1ncccn1 (centres unmarked) [a-005]

chromatographic logP [5, 7]: 0.52
SMILES: COCCNC(C)c1ncnn1-c1ncccn1 (centres unmarked) [a-006]

chromatographic logP [5, 7]: 1.12
SMILES: CC(NCC1CSC1)c1ncnn1-c1ncccn1 (centres unmarked) [a-007]

chromatographic logP [5, 7]: 0.51
SMILES: CC(NCC1CS(=O)(=O)C1)c1ncnn1-c1ncccn1 (centres unmarked) [a-008]
